According to publication PMC6934184, “Selective DNA-PKcs inhibition extends the therapeutic index of localized radiotherapy and chemotherapy” (The Journal of Clinical Investigation, 2019):

Biological target: T1, RET G691S (Homo sapiens, UniProt P07949, G691S)
T1 construct: purchased Thermo Fisher Scientific (Life Technologies) SelectScreen
Test: SelectScreen LanthaScreen
Assay type: binding
Settings: read-out: % displacement
Outline: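 NU5455 was profiled across the SelectScreen Broad panel of kinase activity and binding assays. Z'LYTE reactions such as CSF1R ran at apparent Km ATP, while the Adapta CAMK1 assay used ATP listed as 10. Values are given as percent.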

T1 sequence (P07949 29-1114 G691S): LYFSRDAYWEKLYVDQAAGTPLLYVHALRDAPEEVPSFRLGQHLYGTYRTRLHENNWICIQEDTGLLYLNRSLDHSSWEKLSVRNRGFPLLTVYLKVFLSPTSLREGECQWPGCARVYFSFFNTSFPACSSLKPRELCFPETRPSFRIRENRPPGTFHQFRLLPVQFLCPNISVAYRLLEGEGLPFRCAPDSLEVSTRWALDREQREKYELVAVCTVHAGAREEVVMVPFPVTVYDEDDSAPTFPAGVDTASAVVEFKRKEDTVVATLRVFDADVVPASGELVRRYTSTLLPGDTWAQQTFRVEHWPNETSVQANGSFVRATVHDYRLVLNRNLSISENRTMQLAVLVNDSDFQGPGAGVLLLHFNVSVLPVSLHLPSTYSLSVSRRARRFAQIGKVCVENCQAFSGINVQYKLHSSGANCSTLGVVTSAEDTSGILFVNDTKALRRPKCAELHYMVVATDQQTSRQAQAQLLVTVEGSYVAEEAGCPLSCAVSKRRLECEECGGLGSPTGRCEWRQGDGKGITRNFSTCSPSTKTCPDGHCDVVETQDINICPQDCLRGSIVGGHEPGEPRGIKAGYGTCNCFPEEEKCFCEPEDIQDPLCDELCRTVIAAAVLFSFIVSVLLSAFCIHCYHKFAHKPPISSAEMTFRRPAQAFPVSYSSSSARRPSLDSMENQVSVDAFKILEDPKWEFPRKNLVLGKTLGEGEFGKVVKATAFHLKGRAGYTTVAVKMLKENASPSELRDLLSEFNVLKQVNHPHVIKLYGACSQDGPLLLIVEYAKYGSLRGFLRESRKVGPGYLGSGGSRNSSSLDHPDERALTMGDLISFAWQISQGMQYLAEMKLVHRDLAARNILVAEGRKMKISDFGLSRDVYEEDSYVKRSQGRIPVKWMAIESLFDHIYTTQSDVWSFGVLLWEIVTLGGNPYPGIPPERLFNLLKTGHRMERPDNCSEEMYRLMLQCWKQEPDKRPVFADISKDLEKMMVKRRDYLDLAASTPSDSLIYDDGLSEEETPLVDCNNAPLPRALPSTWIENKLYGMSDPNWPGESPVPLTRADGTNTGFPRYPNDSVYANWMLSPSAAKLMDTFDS

**Q.** How did the inhibition at 1 µM turn out when `CN(C(=O)CN1CCOCC1)c1ccc2sc3c(-c4cccc5c(=O)cc(N6CC7CCC(C6)O7)oc45)cccc3c2c1` [NU5455] was run?
**A.** -1.8%
